Measurements taken from the CheMixHub ionic liquid set.

Assay: xn = mol fraction of the nth substance listed

CCCCCCCCCCCC[N+](C)(C)C.[Br-] + O
Settings | electrical conductivity [S/m] | viscosity [mPa·s]
293.15 K, 100 kPa, x1 = 5.406e-05 | – | 0.982
293.15 K, 100 kPa, x1 = 0.0001081 | – | 0.984
293.15 K, 100 kPa, x1 = 0.0001622 | – | 0.985
293.15 K, 100 kPa, x1 = 0.0002162 | – | 0.987
293.15 K, 100 kPa, x1 = 0.0002702 | – | 0.989
293.15 K, 100 kPa, x1 = 0.0003242 | – | 0.991
293.15 K, 100 kPa, x1 = 0.0003783 | – | 0.993
293.15 K, 100 kPa, x1 = 0.0004323 | – | 0.995
293.15 K, 100 kPa, x1 = 0.0004863 | – | 0.999
293.15 K, 100 kPa, x1 = 0.0005403 | – | 1
293.15 K, 101 kPa, x1 = 5.406e-05 | – | 0.985
293.15 K, 101 kPa, x1 = 0.0001081 | – | 0.986
293.15 K, 101 kPa, x1 = 0.0001622 | – | 0.988
293.15 K, 101 kPa, x1 = 0.0002162 | – | 0.99
293.15 K, 101 kPa, x1 = 0.0002702 | – | 0.992
293.15 K, 101 kPa, x1 = 0.0003242 | – | 0.994
293.15 K, 101 kPa, x1 = 0.0003783 | – | 0.996
293.15 K, 101 kPa, x1 = 0.0004323 | – | 0.998
293.15 K, 101 kPa, x1 = 0.0004863 | – | 1.001
293.15 K, 101 kPa, x1 = 0.0005403 | – | 1.004
298 K, 101 kPa, x1 = 0.0001567 | 0.079 | –
298 K, 101 kPa, x1 = 0.0001676 | 0.084 | –
298 K, 101 kPa, x1 = 0.000182 | 0.09 | –
298 K, 101 kPa, x1 = 0.0001874 | 0.093 | –
298 K, 101 kPa, x1 = 0.0001946 | 0.096 | –
298 K, 101 kPa, x1 = 0.0002054 | 0.099 | –
298 K, 101 kPa, x1 = 0.0002144 | 0.105 | –
298 K, 101 kPa, x1 = 0.0002252 | 0.111 | –
298 K, 101 kPa, x1 = 0.000236 | 0.115 | –
298.15 K, 100 kPa, x1 = 5.406e-05 | – | 0.853
298.15 K, 100 kPa, x1 = 0.0001081 | – | 0.855
298.15 K, 100 kPa, x1 = 0.0001622 | – | 0.855
298.15 K, 100 kPa, x1 = 0.0002162 | – | 0.857
298.15 K, 100 kPa, x1 = 0.0002702 | – | 0.86
298.15 K, 100 kPa, x1 = 0.0003242 | – | 0.86
298.15 K, 100 kPa, x1 = 0.0003783 | – | 0.861
298.15 K, 100 kPa, x1 = 0.0004323 | – | 0.863
298.15 K, 100 kPa, x1 = 0.0004863 | – | 0.864
298.15 K, 100 kPa, x1 = 0.0005403 | – | 0.866
298.15 K, 101 kPa, x1 = 4.307e-05 | 0.02398 | –
298.15 K, 101 kPa, x1 = 5.406e-05 | – | 0.853
298.15 K, 101 kPa, x1 = 5.568e-05 | 0.0306 | –
298.15 K, 101 kPa, x1 = 6.865e-05 | 0.03743 | –
298.15 K, 101 kPa, x1 = 8.144e-05 | 0.04413 | –
298.15 K, 101 kPa, x1 = 9.46e-05 | 0.0508 | –
298.15 K, 101 kPa, x1 = 0.0001068 | 0.05714 | –
298.15 K, 101 kPa, x1 = 0.0001081 | – | 0.854
298.15 K, 101 kPa, x1 = 0.0001198 | 0.06364 | –
298.15 K, 101 kPa, x1 = 0.0001322 | 0.06995 | –
298.15 K, 101 kPa, x1 = 0.0001456 | 0.07656 | –
298.15 K, 101 kPa, x1 = 0.0001584 | 0.0829 | –
298.15 K, 101 kPa, x1 = 0.0001622 | – | 0.856
298.15 K, 101 kPa, x1 = 0.0001704 | 0.08876 | –
298.15 K, 101 kPa, x1 = 0.0001857 | 0.09628 | –
298.15 K, 101 kPa, x1 = 0.0002009 | 0.1036 | –
298.15 K, 101 kPa, x1 = 0.0002126 | 0.1093 | –
298.15 K, 101 kPa, x1 = 0.0002162 | – | 0.858
298.15 K, 101 kPa, x1 = 0.0002243 | 0.1151 | –
298.15 K, 101 kPa, x1 = 0.0002466 | 0.1259 | –
298.15 K, 101 kPa, x1 = 0.0002495 | 0.1271 | –
298.15 K, 101 kPa, x1 = 0.0002564 | 0.1305 | –
298.15 K, 101 kPa, x1 = 0.0002702 | – | 0.859
298.15 K, 101 kPa, x1 = 0.0002992 | 0.1437 | –
298.15 K, 101 kPa, x1 = 0.000323 | 0.1474 | –
298.15 K, 101 kPa, x1 = 0.0003242 | – | 0.861
298.15 K, 101 kPa, x1 = 0.0003333 | 0.1488 | –
298.15 K, 101 kPa, x1 = 0.0003783 | – | 0.862
298.15 K, 101 kPa, x1 = 0.0004323 | – | 0.864
298.15 K, 101 kPa, x1 = 0.0004863 | – | 0.861
298.15 K, 101 kPa, x1 = 0.0005403 | – | 0.867
303.15 K, 100 kPa, x1 = 5.406e-05 | – | 0.772
303.15 K, 100 kPa, x1 = 0.0001081 | – | 0.773
303.15 K, 100 kPa, x1 = 0.0001622 | – | 0.774
303.15 K, 100 kPa, x1 = 0.0002162 | – | 0.775
303.15 K, 100 kPa, x1 = 0.0002702 | – | 0.777
303.15 K, 100 kPa, x1 = 0.0003242 | – | 0.78
303.15 K, 100 kPa, x1 = 0.0003783 | – | 0.784
303.15 K, 100 kPa, x1 = 0.0004323 | – | 0.786
303.15 K, 100 kPa, x1 = 0.0004863 | – | 0.799
303.15 K, 100 kPa, x1 = 0.0005403 | – | 0.803
303.15 K, 101 kPa, x1 = 5.406e-05 | – | 0.772
303.15 K, 101 kPa, x1 = 0.0001081 | – | 0.772
303.15 K, 101 kPa, x1 = 0.0001622 | – | 0.774
303.15 K, 101 kPa, x1 = 0.0002162 | – | 0.775
303.15 K, 101 kPa, x1 = 0.0002702 | – | 0.778
303.15 K, 101 kPa, x1 = 0.0003242 | – | 0.78
303.15 K, 101 kPa, x1 = 0.0003783 | – | 0.785
303.15 K, 101 kPa, x1 = 0.0004323 | – | 0.786
303.15 K, 101 kPa, x1 = 0.0004863 | – | 0.799
303.15 K, 101 kPa, x1 = 0.0005403 | – | 0.802
308 K, 101 kPa, x1 = 0.0001513 | 0.078 | –
308 K, 101 kPa, x1 = 0.0001694 | 0.085 | –
308 K, 101 kPa, x1 = 0.0001892 | 0.094 | –
308 K, 101 kPa, x1 = 0.0002486 | 0.121 | –
308 K, 101 kPa, x1 = 0.0002774 | 0.135 | –
308 K, 101 kPa, x1 = 0.0003945 | 0.155 | –
308.15 K, 100 kPa, x1 = 5.406e-05 | – | 0.696
308.15 K, 100 kPa, x1 = 0.0001081 | – | 0.697
308.15 K, 100 kPa, x1 = 0.0001622 | – | 0.698
308.15 K, 100 kPa, x1 = 0.0002162 | – | 0.699
308.15 K, 100 kPa, x1 = 0.0002702 | – | 0.701
308.15 K, 100 kPa, x1 = 0.0003242 | – | 0.705
308.15 K, 100 kPa, x1 = 0.0003783 | – | 0.708
308.15 K, 100 kPa, x1 = 0.0004323 | – | 0.711
308.15 K, 100 kPa, x1 = 0.0004863 | – | 0.715
308.15 K, 100 kPa, x1 = 0.0005403 | – | 0.716
308.15 K, 101 kPa, x1 = 5.406e-05 | – | 0.696
308.15 K, 101 kPa, x1 = 0.0001081 | – | 0.697
308.15 K, 101 kPa, x1 = 0.0001622 | – | 0.698
308.15 K, 101 kPa, x1 = 0.0002162 | – | 0.699
308.15 K, 101 kPa, x1 = 0.0002702 | – | 0.701
308.15 K, 101 kPa, x1 = 0.0003242 | – | 0.705
308.15 K, 101 kPa, x1 = 0.0003783 | – | 0.709
308.15 K, 101 kPa, x1 = 0.0004323 | – | 0.711
308.15 K, 101 kPa, x1 = 0.0004863 | – | 0.714
308.15 K, 101 kPa, x1 = 0.0005403 | – | 0.716
313.15 K, 100 kPa, x1 = 5.406e-05 | – | 0.611
313.15 K, 100 kPa, x1 = 0.0001081 | – | 0.612
313.15 K, 100 kPa, x1 = 0.0001622 | – | 0.614
313.15 K, 100 kPa, x1 = 0.0002162 | – | 0.617
313.15 K, 100 kPa, x1 = 0.0002702 | – | 0.617
313.15 K, 100 kPa, x1 = 0.0003242 | – | 0.62
313.15 K, 100 kPa, x1 = 0.0003783 | – | 0.624
313.15 K, 100 kPa, x1 = 0.0004323 | – | 0.626
313.15 K, 100 kPa, x1 = 0.0004863 | – | 0.628
313.15 K, 100 kPa, x1 = 0.0005403 | – | 0.63
318 K, 101 kPa, x1 = 0.0001513 | 0.08 | –
318 K, 101 kPa, x1 = 0.0001748 | 0.09 | –
318 K, 101 kPa, x1 = 0.0001964 | 0.101 | –
318 K, 101 kPa, x1 = 0.0002252 | 0.113 | –
318 K, 101 kPa, x1 = 0.0002486 | 0.125 | –
318 K, 101 kPa, x1 = 0.000317 | 0.152 | –
318 K, 101 kPa, x1 = 0.0003369 | 0.157 | –
318 K, 101 kPa, x1 = 0.0003945 | 0.165 | –
318 K, 101 kPa, x1 = 0.0004305 | 0.169 | –
318.15 K, 100 kPa, x1 = 5.406e-05 | – | 0.582
318.15 K, 100 kPa, x1 = 0.0001081 | – | 0.584
318.15 K, 100 kPa, x1 = 0.0001622 | – | 0.585
318.15 K, 100 kPa, x1 = 0.0002162 | – | 0.587
318.15 K, 100 kPa, x1 = 0.0002702 | – | 0.588
318.15 K, 100 kPa, x1 = 0.0003242 | – | 0.589
318.15 K, 100 kPa, x1 = 0.0003783 | – | 0.59
318.15 K, 100 kPa, x1 = 0.0004323 | – | 0.591
318.15 K, 100 kPa, x1 = 0.0004863 | – | 0.592
318.15 K, 100 kPa, x1 = 0.0005403 | – | 0.593
